In patent publication US9464064B2, “HCV helicase inhibitors and methods of use thereof” (University of Kansas, priority 2011, dated 2016):
Residues, ends and D or L forms follow the SMILES beside them. *: point of attachment. Cbz = O=C(OCc1ccccc1)*; CH2Cl = ClC*

Molecular target: T1, HCV NS3 helicase NS3h_1b(con1) (Hepatitis C virus genotype 1b, UniProt Q9WMX2)
T1 construct: truncated C-terminally His-tagged NS3 proteins lacking the N-terminal protease, called NS3h; His-tag (C); made in house
Assay: MBHA screen of NCI mechanistic set library at 20 μM (percent inhibition, compound interference)
Format: biochemical
Settings: compounds at 20 μM; for Inh. (%) (Inhibition): calculated from Equation 1
Method in brief: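 Molecular beacon-based DNA unwinding assay; compounds screened at 20 μM in triplicate, with DMSO-only negative and 500 nM dT20 positive controls. Fluorescence (ex 643/em 670 nm) was read before and 30 min after adding ATP to 1 mM. Percent inhibition came from the change relative to DMSO controls; interference from pre-ATP fluorescence versus DMSO controls.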

[1] = MBHA with DNA substrate, assay interference calculated with Equation 2
[2] = assay interference calculated with Equation 2 (fluorescence vs DMSO-only controls before ATP)

T1 sequence (Q9WMX2 1192-1657): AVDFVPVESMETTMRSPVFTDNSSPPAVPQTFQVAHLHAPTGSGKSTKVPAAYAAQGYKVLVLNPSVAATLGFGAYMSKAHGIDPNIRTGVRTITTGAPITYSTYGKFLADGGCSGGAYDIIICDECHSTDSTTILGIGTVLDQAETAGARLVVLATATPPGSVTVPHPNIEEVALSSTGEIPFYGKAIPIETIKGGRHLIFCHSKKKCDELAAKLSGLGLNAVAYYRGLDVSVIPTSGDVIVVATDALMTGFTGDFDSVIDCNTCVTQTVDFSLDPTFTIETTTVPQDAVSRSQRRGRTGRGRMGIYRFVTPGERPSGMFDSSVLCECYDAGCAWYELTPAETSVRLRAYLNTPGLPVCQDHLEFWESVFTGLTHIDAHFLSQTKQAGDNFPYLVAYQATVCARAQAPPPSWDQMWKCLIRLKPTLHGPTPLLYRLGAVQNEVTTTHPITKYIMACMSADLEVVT

Row | Int.* (Ratio) (Interference) [1] | Inh. (%) (Inhibition) (MBHA with DNA substrate) | Inh. (%) (Inhibition) (MBHA with a DNA substrate) | Int.* (Ratio) (Interference) [2] | SMILES
1 | 1.09 Ratio | 1.4% | – | – | CC(C)CC(NC(=O)OCc1ccccc1)C(=O)NC(Cc1ccccc1)C(=O)CCl (stereo not drawn) [Compound 173904] (Cbz-Leu-Phe-CH2Cl; configuration not given here)
2 | 1.11 Ratio | −12.0% | – | – | CC(=O)NC(CC(C)C)C(=O)NC(Cc1ccccc1)C(=O)CCl (stereo not drawn) [Compound 173905] (Ac-Leu-Phe-CH2Cl; configuration not given here)
3 | 0.91 Ratio | −13.1% | – | – | CN(Cc1cnc2nc(N)nc(N)c2n1)c1ccc(C(=O)NC(CCC(=O)O)C(=O)O)c2ccccc12 (stereo not shown) [Compound 174121]
4 | 0.90 Ratio | 1.1% | – | – | CCCC(=O)[O-].[Na+] [Compound 174280]
5 | – | – | 7.0% | 1.09 Ratio | N=N/C(=C\c1c(O)[nH]c2ccccc12)c1ccccc1 [Compound 175274]
6 | 0.90 Ratio | 4.7% | – | – | COc1ccc(C=CC(=O)Oc2cc(O)cc(O)c2)cc1 [Compound 175296]
7 | 0.93 Ratio | 1.5% | – | – | Cc1ccc(C2NC(=O)c3ccccc3N2)s1 (stereo not shown) [Compound 175634]
8 | – | – | −5.0% | 0.96 Ratio | O=C1NC(c2cccc3ccccc23)Nc2ccc(Cl)cc21 (stereo not shown) [Compound 175636]
9 | – | – | −6.8% | 1.02 Ratio | N[C@H](C(=O)O)[C@H]1ON=C(Cl)[C@H]1O [Compound 176324]
10 | 1.08 Ratio | 0.3% | – | – | C(=C/c1nc2ccccc2o1)/c1ccc2c(c1)OCO2 [Compound 176655]
11 | – | – | 9.2% | 0.49 Ratio | NC(N)=NCCCS(=O)(=O)Nc1ccc(Nc2c3ccccc3nc3cc([N+](=O)[O-])ccc23)cc1 [Compound 177365]
12 | 0.90 Ratio | 13.5% | – | – | CC/C(=C(\c1ccccc1)c1ccc(OCCN(C)C)cc1)c1ccccc1.O=C(O)CC(O)(CC(=O)O)C(=O)O [Compound 180973]
13 | 0.50 Ratio | 38.3% | – | – | COc1ccc2cc1Oc1ccc(cc1)CC1c3c(cc(OC)c4c3Oc3cc5c(cc3O4)CCNC5C2)CCN1C (stereo not shown) [Compound 181486]
14 | – | – | −39.0% | 1.09 Ratio | C[C@H]1O[C@@H](c2ccc3c(c2O)C(=O)C2=C(C3=O)[C@@]3(O)C(=O)C[C@](C)(O)C[C@@]3(O)C=C2)C[C@@H](O)[C@@H]1O [Compound 184398]
15 | 0.42 Ratio | 27.4% | – | – | C[n+]1cc2cc(O)c(O)cc2c2ccc3cc(O)c(O)cc3c21.Cl.[Cl-].c1ccncc1 [Compound 184403]
16 | – | – | 6.8% | 0.90 Ratio | NC(=S)N/N=C/c1ccc(OC(=O)COc2ccccc2Cl)cn1 [Compound 185056]
17 | – | – | −26.6% | 1.11 Ratio | Oc1ccc(/C=N/NC(=S)Nc2cccnc2)nc1 [Compound 185065]
18 | 1.07 Ratio | −1.8% | – | – | Cc1cc(C)c(NC(=O)/C=C/c2ccccc2)c(C)c1 [Compound 191384]

Row | Int.* (Ratio) (Interference) [1] | Inh. (%) (Inhibition) (MBHA with DNA substrate) | Inh. (%) (Inhibition) (MBHA with a DNA substrate) | Int.* (Ratio) (Interference) [2] | SMILES
19 | 1.06 Ratio | −2.3% | – | – | Cc1ccc(NC(=O)/C=C/c2ccccc2)c(C)c1 [Compound 191389]
20 | 1.10 Ratio | 2.5% | – | – | Cc1c(Cl)cccc1NC(=O)/C=C/c1ccccc1 [Compound 191392]
21 | – | – | −6.3% | 1.05 Ratio | Cc1cccc(Cl)c1NC(=O)/C=C/c1ccccc1 [Compound 191393]
22 | – | – | −5.7% | 0.99 Ratio | O=C1OC(c2ccco2)=N/C1=C\c1ccc(Cl)c(Cl)c1 [Compound 202000]
23 | 0.56 Ratio | 56.5% | – | – | CC[C@@]1(O)C[C@H](O[C@H]2C[C@H](N(C)C)[C@H](O[C@H]3C[C@H](O)[C@H](O[C@H]4CCC(=O)[C@H](C)O4)[C@H](C)O3)[C@H](C)O2)c2c(cc3c(c2O)C(=O)c2c(O)cccc2C3=O)[C@@H]1C(=O)OC [Compound 208734]
24 | 1.10 Ratio | 0.9% | – | – | CCOC(=O)C(C)NC(=O)N(C)C12CC3CC(CC(C3)C1)C2 (stereo not shown) [Compound 208913]
25 | – | – | −4.1% | 1.09 Ratio | CCOC(=O)CNC(=O)NC12CC3CC(CC(C3)C1)C2 [Compound 208914]
26 | 0.82 Ratio | 21.9% | – | – | O=c1oc2ccccc2cc1-c1ccc([N+](=O)[O-])cc1 [Compound 215989]
27 | 0.46 Ratio | −8.9% | – | – | C[n+]1ccc(Nc2ccc(NC(=O)c3ccc(Nc4cc[n+](C)c5ccc([N+](=O)[O-])cc45)cc3[N+](=O)[O-])cc2)cc1.Cl [Compound 218439]
28 | 1.01 Ratio | −2.8% | – | – | Cc1[nH]c(=O)[nH]c(=O)c1/C=C/C(=O)NC(CO)CC(C)C (stereo not shown) [Compound 224117]
29 | 0.86 Ratio | 12.3% | – | – | O=C(O)CC(NC(=O)CP(=O)(O)O)C(=O)O (stereo not shown) [Compound 224131]
30 | 0.90 Ratio | −1.0% | – | – | CO[C@H]1C[C@@H]2CC[C@@H](C)[C@@](O)(O2)C(=O)C(=O)N2CCCC[C@H]2C(=O)O[C@H]([C@H](C)C[C@@H]2CC[C@@H](O)[C@H](OC)C2)CC(=O)[C@H](C)/C=C(\C)[C@@H](O)[C@@H](OC)C(=O)[C@H](C)C[C@H](C)/C=C/C=C/C=C/1C [Compound 226080]
31 | 1.00 Ratio | 17.4% | – | – | CSCC(CO)NC(=O)/C=C/c1c(C)[nH]c(=O)[nH]c1=O (stereo not shown) [Compound 233872]
32 | – | – | −6.4% | 1.02 Ratio | O=C([O-])c1ccc(Nc2c3ccccc3nc3ccccc23)cc1.[Na+] [Compound 235082]
33 | – | – | −19.9% | 0.91 Ratio | COC1C(O)=C2C(=O)OC(C)(O)/C=C/C=C\C=C/C=C/C(c3ccccc3)NC(=O)/C=C/C=C/C=C/C=C/C2(C)C1O (stereo not shown) [Compound 236657]
34 | 0.90 Ratio | −18.3% | – | – | COC1/C=C/OC2(C)Oc3c(C)c(O)c4c(c3C2=O)C(=O)C=C(NC(=O)/C(C)=C\C=C\C(C)C(OC=O)C(C)C(O)C(C)C(OC(C)=O)C1C)C4=O (stereo not shown) [Compound 239375]
35 | 1.01 Ratio | −2.4% | – | – | CCCC[S+]([O-])CC(CO)NC(=O)/C=C\c1c(C)[nH]c(=O)[nH]c1=O (stereo not shown) [Compound 241509]
36 | – | – | −6.2% | 0.88 Ratio | COc1cc(O)c(Cc2ccccc2O)c(O)c1C(=O)CCc1ccccc1 [Compound 241906]

Row | SMILES | Int.* (Ratio) (Interference) [1] | Inh. (%) (Inhibition) (MBHA with DNA substrate) | Inh. (%) (Inhibition) (MBHA with a DNA substrate) | Int.* (Ratio) (Interference) [2]
37 | [Cl][Hg][c]1ccc2ccccc2c1 [Compound 174163] | 1.00 Ratio | −18.5% | – | –
38 | CC(=O)[O][Hg][c]1c(C)c(C)c(C)c(C)c1C [Compound 174176] | 1.04 Ratio | 6.0% | – | –
39 | COc1ccc(O)c2c(=O)c3c(OC)cc4c(c3oc12)[C@@H]1C=CO[C@@H]1O4 [Compound 178249] | 0.87 Ratio | 2.4% | – | –
40 | CCOC(=O)NC1=C(N2CC2)C(=O)C(NC(=O)OCC)=C(N2CC2)C1=O [Compound 182986] | 1.18 Ratio | −16.6% | – | –
41 | CCC[CH2][Sn]1([CH2]CCC)[S]CC[N]1S(=O)(=O)c1ccc(C)cc1 [Compound 183359] | 0.83 Ratio | 13.3% | – | –
42 | CC[C@@]1(O)C[C@H](O)c2c(O)c3c(c(O)c2[C@H]1C(=O)OC)C(=O)c1cccc(O)c1C3=O [Compound 196524] | 1.02 Ratio | 3.3% | – | –
43 | COc1cc2c(c3oc4cccc(O)c4c(=O)c13)[C@@H]1C=CO[C@@H]1O2 [Compound 204985] | 1.05 Ratio | 5.4% | – | –
44 | COc1ccc(C2C=C(c3ccc4c(c3)OCO4)Oc3c2c(=O)oc2ccccc32)cc1OC (stereo not shown) [Compound 211489] | – | – | −30.1% | 0.82 Ratio
45 | CC(C)c1oc(=O)cc2c1[C@@H](O)[C@H]1OC(=O)[C@@]3(C)[C@@H](O)[C@H]4O[C@H]4[C@@]2(C)[C@@H]13 [Compound 211500] | – | – | 10.6% | 0.89 Ratio
46 | c1ccc2c(NCCCCCCCCNc3c4ccccc4nc4ccccc34)c3ccccc3nc2c1 [Compound 219734] | 0.26 Ratio | 41.8% | – | –
47 | NC(=O)OCc1c(O)c2c(c(O)c1COC(N)=O)C(=O)C=CC2=O [Compound 224124] | 0.93 Ratio | 37.7% | – | –
48 | Cc1cc(N(CC(C)Br)CC(C)Br)ccc1N=Nc1ccccc1C(=O)O (stereo not shown) [Compound 240419] | 0.94 Ratio | −2.7% | – | –
49 | CC[C@@]1(O)C[C@H](O[C@H]2C[C@H](N(C)C)[C@H](O[C@H]3C[C@@H]4O[C@H]5CC(=O)[C@H](C)O[C@H]5O[C@@H]4[C@H](C)O3)[C@H](C)O2)c2c(cc3c(c2O)C(=O)c2c(O)ccc(O)c2C3=O)[C@H]1C(=O)OC [Compound 243023] | 0.46 Ratio | 24.2% | – | –
50 | CCS(=O)(=O)Nc1ccc(Nc2c3ccccc3nc3ccccc23)c(OC)c1.CS(=O)(=O)O [Compound 243928] | 0.87 Ratio | 3.4% | – | –
